According to patent US6310095A, “Inhibitors of protein isoprenyl transferases” (University of Pittsburgh, priority 1998, dated 2001):
Counter-ions that a name gives are not always drawn.

molecular target: T1, protein farnesyltransferase (Rattus norvegicus, UniProt Q02293+Q04631); assay: in vitro inhibition of protein farnesyltransferase (scintillation proximity assay, biotin-K Ras B fragment); type: biochemical; conditions: at 1 × 10^-6 M
T1 construct: Rat brain protein farnesyltransferase activity is measured; from tissue; host or cells: rat brain; purified according to Reiss et al., Cell 62:81-88 (1990), steps one through three
Procedure, shortened: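 Scintillation proximity read-out of farnesylation, using a biotinylated K Ras B fragment (0.1 mM final) in place of biotin-lamin. Enzyme purified from rat brain; results given as % inhibition.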

Structure (SMILES) | % inhibition of farnesyltransferase [%]
CSCC[C@H](NC(=O)c1ccc(CS[C@H](CO)Cc2ccccc2)cc1-c1ccccc1)C(=O)O [Example 545] | 88
CSCC[C@H](NC(=O)c1ccc(OC/C=C(\C)CCC=C(C)C)cc1-c1ccccc1C)C(=O)O [Example 546] | 97
CSCC[C@H](NC(=O)c1ccc(OC/C=C(\C)CC/C=C(\C)CCC=C(C)C)cc1-c1ccccc1C)C(=O)O [Example 547] | 91
CSCC[C@H](NC(=O)c1ccc(CSC2CCCCC2)cc1-c1ccccc1C)C(=O)[O-].[Li+] [Example 550] | 96
CSCC[C@H](NC(=O)c1ccc(OCCC2CCCCC2)cc1-c1ccccc1C)C(=O)[O-].[Li+] [Example 552] | 88
CSCC[C@H](NC(=O)c1ccc(OCCC23CC4CC(CC(C4)C2)C3)cc1-c1ccccc1C)C(=O)O [Example 553] | 92
CSCC[C@H](NC(=O)c1ccc(CSCc2ccccc2)cc1-c1ccccc1C)C(=O)[O-].[Li+] [Example 554] | 96
CSCC[C@H](NC(=O)c1ccc(CS(=O)(=O)Cc2ccccc2)cc1-c1ccccc1C)C(=O)O [Example 555] | 85
CSCC[C@H](NC(=O)c1ccc(CSCc2ccc(C)cc2)cc1-c1ccccc1C)C(=O)[O-].[Li+] [Example 556] | 99
CSCC[C@H](NC(=O)c1ccc(CSCc2ccccc2C)cc1-c1ccccc1C)C(=O)[O-].[Li+] [Example 557] | 93
CSCC[C@H](NC(=O)c1ccc(OC/C=C/c2ccccc2)cc1-c1ccccc1C)C(=O)O [Example 560] | 91
CSCC[C@H](NC(=O)c1ccc(OCCOc2ccccc2)cc1-c1ccccc1C)C(=O)O [Example 561] | 91
CSCC[C@H](NC(=O)c1ccc(OCCCC2CCCCC2)cc1-c1ccccc1C)C(=O)O [Example 564] | 98
CSCC[C@H](NC(=O)c1ccc(OCCOC2CCCCC2)cc1-c1ccccc1C)C(=O)[O-].[Li+] [Example 565] | 94
CSCC[C@H](NC(=O)c1ccc(OCCCOc2ccccc2)cc1-c1ccccc1C)C(=O)O [Example 566] | 98
CSCC[C@H](NC(=O)c1ccc(OCCCCOc2ccccc2)cc1-c1ccccc1C)C(=O)O [Example 568] | 93
CSCC[C@H](NC(=O)c1ccc(CC(Cc2ccccc2)c2ccccc2)cc1-c1ccccc1C)C(=O)[O-].[Li+] (stereo partly shown) [Example 572] | 91
CSCC[C@H](NC(=O)c1ccc(COCc2ccccc2)cc1-c1ccccc1)C(=O)O [Example 575] | 70
Cc1ccccc1-c1cc(COCc2ccccc2)ccc1C(=O)N[C@@H](CCS(C)(=O)=O)C(=O)O [Example 576] | 88
CSCC[C@H](NC(=O)c1ccc(COCc2ccccc2C)cc1-c1ccccc1C)C(=O)[O-].[Li+] [Example 577] | 94
CSCC[C@H](NC(=O)c1ccc(COCc2ccccc2)cc1-c1ccccc1C)C(=O)NS(=O)(=O)c1ccc(C)cc1 [Example 582] | 99
CSCC[C@H](NC(=O)c1ccc(COCc2ccc3ccccc3c2)cc1-c1ccccc1C)C(=O)[O-].[Li+] [Example 583] | 98
CSCC[C@H](NC(=O)c1ccc(COCCc2ccccc2)cc1-c1ccccc1C)C(=O)[O-].[Li+] [Example 587] | 97
CSCC[C@H](NC(=O)c1ccc(COCCCc2ccccc2)cc1-c1ccccc1C)C(=O)[O-].[Li+] [Example 595] | 97

same assay, conditions: at 1 × 10^-6 M; read-out: % inhibition of farnesyltransferase

Structure (SMILES) | inhibition at 1 µM [%]
CSCC[C@H](NC(=O)c1ccc(NC(=O)Cc2ccccc2)cc1-c1ccccc1C)C(=O)O [Example 540, N-[4-N-phenylacetylamino-2-(2-methylphenyl)benzoyl]methionine lithium salt] | 40
CSCC[C@H](NC(=O)c1ccc(NC(=O)Cc2ccc(C)cc2)cc1-c1ccccc1C)C(=O)O [Example 541, N-[4-N-(4'-methylphenylacetyl)amino-2-(2-methylphenyl)benzoyl]methionine lithium salt] | 37
COc1ccc(CC(=O)Nc2ccc(C(=O)N[C@@H](CCSC)C(=O)O)c(-c3ccccc3C)c2)cc1 [Example 542, N-[4-N-(4'-methoxyphenylacetyl)amino-2-(2-methylphenyl)benzoyl]methionine lithium salt] | 67
COc1ccccc1CCC(=O)Nc1ccc(C(=O)N[C@@H](CCSC)C(=O)O)c(-c2ccccc2C)c1 [Example 544, N-[4-N-(3-(2-methoxyphenyl)propionoyl)amino-2-(2-methylphenyl)benzoyl]methionine lithium salt] | 35

same assay, conditions: at 1 × 10^-7 M

Structure (SMILES) | % inhibition of farnesyltransferase [%]
CSCC[C@H](NC(=O)c1ccc(COCc2cc3ccccc3o2)cc1-c1ccccc1C)C(=O)[O-].[Li+] [Example 533] | 91
CSCC[C@H](NC(=O)c1ccc(COC(Cc2ccccc2)c2ccco2)cc1-c1ccccc1C)C(=O)[O-].[Li+] (stereo partly shown) [Example 534] | 84
CSCC[C@H](NC(=O)c1ccc(COCCc2ccc(-c3ccc(F)cc3)o2)cc1-c1ccccc1C)C(=O)[O-].[Li+] [Example 535] | 89
CSCC[C@H](NC(=O)c1ccc(COCCc2ccc(-c3ccc(Cl)cc3)o2)cc1-c1ccccc1C)C(=O)[O-].[Li+] [Example 536] | 79
CSCC[C@H](NC(=O)c1ccc(COCc2cncs2)cc1-c1ccccc1C)C(=O)[O-].[Li+] [Example 539] | 89
CSCC[C@H](NC(=O)c1ccc(CSc2ccc3ccccc3c2)cc1-c1ccccc1C)C(=O)O [Example 551] | 93
CSCC[C@H](NC(=O)c1ccc(CSCC2CCCCC2)cc1-c1ccccc1C)C(=O)[O-].[Li+] [Example 559] | 96
CSCC[C@H](NC(=O)c1ccc(CSCCc2ccccc2)cc1-c1ccccc1C)C(=O)[O-].[Li+] [Example 562] | 95
CSCC[C@H](NC(=O)c1ccc(COCc2ccccc2)cc1-c1ccccc1C)C(=O)[O-].[Li+] [Example 571] | 88
CSCC[C@H](NC(=O)c1ccc(COc2ccc3ccccc3c2)cc1-c1ccccc1C)C(=O)O [Example 573] | 72
CSCC[C@H](NC(=O)c1ccc(COc2cccc3ccccc23)cc1-c1ccccc1C)C(=O)O [Example 574] | 81
CSCC[C@H](NC(=O)c1ccc(COCc2cccc(C)c2)cc1-c1ccccc1C)C(=O)[O-].[Li+] [Example 578] | 90
CSCC[C@H](NC(=O)c1ccc(COCc2ccc(C)cc2)cc1-c1ccccc1C)C(=O)[O-].[Li+] [Example 579] | 92
CSCC[C@H](NC(=O)c1ccc(COCc2ccccc2)cc1-c1ccccc1C)C(=O)NS(=O)(=O)c1ccccc1 [Example 580] | 90
CSCC[C@H](NC(=O)c1ccc(COCc2cccc3ccccc23)cc1-c1ccccc1C)C(=O)[O-].[Li+] [Example 584] | 96
CSCC[C@H](NC(=O)c1ccc(COCC2CCCCC2)cc1-c1ccccc1C)C(=O)[O-].[Li+] [Example 585] | 96
COc1ccccc1CCOCc1ccc(C(=O)N[C@@H](CCSC)C(=O)O)c(-c2ccccc2C)c1 [Example 589] | 91
CSCC[C@H](NC(=O)c1ccc(COCCc2ccc(Cl)cc2)cc1-c1ccccc1C)C(=O)[O-].[Li+] [Example 590] | 95
CSCC[C@H](NC(=O)c1ccc(COCCc2cccc3ccccc23)cc1-c1ccccc1C)C(=O)[O-].[Li+] [Example 592] | 93
CSCC[C@H](NC(=O)c1ccc(COCCc2ccc3ccccc3c2)cc1-c1ccccc1C)C(=O)[O-].[Li+] [Example 593] | 86
CSCC[C@H](NC(=O)c1ccc(COCCC2CCCCC2)cc1-c1ccccc1C)C(=O)[O-].[Li+] [Example 594] | 95
CSCC[C@@H](C(=O)[O-])N(C)C(=O)c1ccc(COCCCC2CCCCC2)cc1-c1ccccc1C.[Li+] [Example 597] | 75
CSCC[C@H](NC(=O)c1ccc(COCCCCC2CCCCC2)cc1-c1ccccc1C)C(=O)O [Example 600] | 93
CSCC[C@H](NC(=O)c1ccc(COCCCCc2ccccc2)cc1-c1ccccc1C)C(=O)O [Example 601] | 92

same assay, conditions: at 1 × 10^-7 M; read-out: % inhibition of farnesyltransferase

Structure (SMILES) | inhibition at 0.1 µM [%]
CSCC[C@H](NC(=O)c1ccc(CN(Cc2ccccc2)Cc2nccs2)cc1-c1ccccc1C)C(=O)O [Example 548, N-[4-N-benzyl-N-(thiazol-2-ylmethyl)aminomethyl-2-(2-methylphenyl)benzoyl]methionine] | 86
CSCC[C@H](NC(=O)c1ccc(CN(Cc2ccccc2)Cc2cncs2)cc1-c1ccccc1C)C(=O)O [Example 549, N-[4-N-benzyl-N-(thiazol-5-ylmethyl)aminomethyl-2-(2-methylphenyl)benzoyl]methionine] | 98

same assay, conditions: at 1 × 10^-8 M

Structure (SMILES) | % inhibition of farnesyltransferase [%]
CSCC[C@H](NC(=O)c1ccc(CSCc2ccccc2)cc1-c1ccccc1C)C(=O)NS(=O)(=O)c1ccc(C)cc1 [Example 586] | 90
CSCC[C@H](NC(=O)c1ccc(COCCc2ccccc2Cl)cc1-c1ccccc1C)C(=O)[O-].[Li+] [Example 588] | 68
CSCC[C@H](NC(=O)c1ccc(COCCc2ccc(Cl)cc2Cl)cc1-c1ccccc1C)C(=O)[O-].[Li+] [Example 591] | 82
CSCC[C@H](NC(=O)c1ccc(COCCCC23CC4CC(CC(C4)C2)C3)cc1-c1ccccc1C)C(=O)[O-].[Li+] [Example 599] | 86
